This is an account of results in ChEMBL document CHEMBL3286168, “Synthesis of 2'-O,4'-C-alkylene-bridged ribonucleosides and their evaluation as inhibitors of HCV NS5B polymerase” (Bioorg Med Chem Lett, 2014).

SMILES strings stand for the structures.

A word on the EC50: it is the concentration at which the effect is half-maximal. Read a low EC50 as a more potent agent. The term IC50 denotes the concentration that gives 50% inhibition. A low value points to greater potency in that assay.

Data set [1] concerns Hepatitis C virus. Nature of the data set: Antiviral activity against wild type Hepatitis C virus genotype 1b infected in human HuH7 cells after 72 hrs by luciferase reporter gene assay. It counts as functional, cell-based, Hepacivirus hominis. The note with it: Huh-7, 72 h. For orientation: In a reporter assay the amount or activity of a reporter protein is the signal.
The nature of data set [2]: Cytotoxicity against human HuH7 cells up to 100 uM after 3 hrs by CellTiter-Blue cell viability assay. The note with it: huh-7, 3 h. The data set is classed as cell-based.
A short description of data set [3]: Inhibition of purified wild type Hepatitis C virus 1b NS5B polymerase. Further details: species or system Hepatitis C virus subtype 1b.
The target in data set [4] is RNA-directed RNA polymerase (Hepacivirus hominis, UniProt O39930, S282T). The data set can be described thus: Inhibition of purified Hepatitis C virus NS5B polymerase S282T mutant. On the set-up: species or system Hepatitis C virus subtype 1b.
The test system of data set [5] is Hepatitis C virus subtype 1b. The data set can be described thus: Selectivity ratio of IC50 for Hepatitis C virus NS5B polymerase S282T mutant to wild type Hepatitis C virus 1b NS5B polymerase.
Data set [6] can be described thus: Inhibition of purified wild type Hepatitis C virus 2a NS5B polymerase. Further details: species or system Hepatitis C virus subtype 2a.
Data set [7] can be described thus: Inhibition of purified wild type Hepatitis C virus 1a NS5B polymerase. On the set-up: species or system Hepatitis C virus subtype 1a.
A short description of data set [8]: Inhibition of purified wild type Hepatitis C virus 3a NS5B polymerase. On the set-up: species or system Hepatitis C virus subtype 3a.
A short description of data set [9]: Inhibition of purified wild type Hepatitis C virus 4a NS5B polymerase. Further details: species or system Hepatitis C virus subtype 4a.

Sequence of RNA-directed RNA polymerase (O39930 entry or part of it S282T): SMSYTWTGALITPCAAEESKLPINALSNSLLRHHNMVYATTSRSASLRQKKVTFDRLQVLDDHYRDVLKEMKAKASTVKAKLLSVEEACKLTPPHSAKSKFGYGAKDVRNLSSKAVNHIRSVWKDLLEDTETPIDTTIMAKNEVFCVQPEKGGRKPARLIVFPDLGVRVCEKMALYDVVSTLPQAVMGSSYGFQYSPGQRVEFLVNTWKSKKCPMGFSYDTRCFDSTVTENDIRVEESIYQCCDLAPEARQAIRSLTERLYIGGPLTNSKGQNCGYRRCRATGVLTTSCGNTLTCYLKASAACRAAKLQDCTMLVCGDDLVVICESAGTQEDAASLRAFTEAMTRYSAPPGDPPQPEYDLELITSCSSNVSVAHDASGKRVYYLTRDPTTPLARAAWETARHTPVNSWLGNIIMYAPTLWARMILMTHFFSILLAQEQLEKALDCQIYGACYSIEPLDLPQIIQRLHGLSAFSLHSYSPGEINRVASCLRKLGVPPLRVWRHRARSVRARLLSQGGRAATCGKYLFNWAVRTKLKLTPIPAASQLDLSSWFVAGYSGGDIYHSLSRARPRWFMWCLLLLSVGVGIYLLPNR

For the compound `Nc1ncnc2c1ncn2[C@@H]1O[C@@]2(CO)CO[C@@H]1[C@@H]2O`, in [1], the EC50 is more than 50 µM. The Activity entry in data set [2] is “Non-toxic”.
For the compound `CC(OP(=O)(O)OP(=O)(O)OP(=O)(O)O)[C@@]12CO[C@@H]([C@H](n3cnc4c(=O)[nH]c(N)nc43)O1)[C@@H]2O` (stereo in doubt; form 2), the IC50 in data set [3] and in [4] was more than 100 µM in each case.
In the case of `O=c1ccn([C@@H]2O[C@@]3(COP(=O)(O)OP(=O)(O)OP(=O)(O)O)CO[C@@H]2[C@@H]3O)c(=O)[nH]1`, the IC50 in data set [3] came out at 3.84 µM; in data set [4], 12.8 µM.
As for `C[C@]12OC[C@](COP(=O)(O)OP(=O)(O)OP(=O)(O)O)(O[C@H]1n1cnc3c(=O)[nH]c(N)nc31)[C@H]2O`, the IC50 came out at 0.2 µM in [3] and 0.48 µM in [4]. In data set [5], the Ratio IC50 was 2.
For the compound `Nc1nc2c(ncn2[C@@H]2O[C@@]3(COP(=O)(O)OP(=O)(O)OP(=O)(O)O)CCO[C@@H]2[C@@H]3O)c(=O)[nH]1`, the IC50 in data set [3] and in [4] was more than 100 µM each time.
In data set [1], `Nc1nc2c(ncn2[C@@H]2O[C@@]3(CO)CO[C@@H]2[C@@H]3O)c(=O)[nH]1` gave an EC50 of more than 50 µM. Moreover, in data set [2], the Activity entry was “Non-toxic”.
For `Nc1nc2c(ncn2[C@@H]2O[C@@]3(COP(=O)(O)OP(=O)(O)OP(=O)(O)O)CO[C@@H]2[C@@H]3O)c(=O)[nH]1`, the IC50 in data set [6] worked out at 290 nM; in data set [7], 370 nM; in [3] it was 0.39 µM; in data set [8], 200 nM; in data set [4], 0.38 µM; in data set [9], 310 nM.
Compound `Nc1nc2c(ncn2[C@@H]2O[C@@]3(CO)CCO[C@@H]2[C@@H]3O)c(=O)[nH]1` returned an EC50 in [1] of more than 50 µM. Besides, the Activity result in data set [2] was “Non-toxic”.
In the same order, the values of `CC(O)[C@@]12CO[C@@H]([C@H](n3cnc4c(=O)[nH]c(N)nc43)O1)[C@@H]2O` (mixture of isomers) are more than 50 µM and “Non-toxic”.
In the same order, the values of `Nc1ccn([C@@H]2O[C@@]3(CO)CO[C@@H]2[C@@H]3O)c(=O)n1` are more than 50 µM and “Non-toxic”.
`CC(OP(=O)(O)OP(=O)(O)OP(=O)(O)O)[C@@]12CO[C@@H]([C@H](n3cnc4c(=O)[nH]c(N)nc43)O1)[C@@H]2O` (stereo in doubt; form 1): the IC50 stood at 15.9 µM in [3] and 25.1 µM in data set [4].
`C[C@]12OC[C@](CO)(O[C@H]1n1cnc3c(=O)[nH]c(N)nc31)[C@H]2O` came in with an EC50 in data set [1] of more than 50 µM. Further, the Activity entry in data set [2] is given as “Non-toxic”.
Consider `Nc1ccn([C@@H]2O[C@@]3(COP(=O)(O)OP(=O)(O)OP(=O)(O)O)CO[C@@H]2[C@@H]3O)c(=O)n1`, for which the IC50 in [3] was found to be 1.39 µM; in data set [4], 1.44 µM.
Consider `O=c1ccn([C@@H]2O[C@@]3(CO)CO[C@@H]2[C@@H]3O)c(=O)[nH]1`, for which the EC50 in [1] was more than 50 µM. For the same compound, in data set [2], the Activity entry is listed as “Non-toxic”.
Consider `Nc1ncnc2c1ncn2[C@@H]1O[C@@]2(COP(=O)(O)OP(=O)(O)OP(=O)(O)O)CO[C@@H]1[C@@H]2O`, for which the IC50 was found to be 39.8 µM in [3] and 86.3 µM in data set [4].
